Here are results for one compound from patent US20060004088A1, “Furan derivatives for preventing and curing osteoporosis and pharmaceutical compositions containing the same” (OCT INC., priority 2002, published 2006).

One assay concerns MG-63 osteoblasts. As to the kind of experiment: Proliferation of MG-63 osteoblasts (3H-thymidine incorporation). The format is cell-based, human. The following applies: for Proliferation rate of MG-63 cells, %: 1% FBS, untreated control = 100; for proliferation rate of osteoblasts compared to a control not treated: text summary, concentration not stated. The source says:
In the following tests, three kinds of cell lines were used. The human osteosarcoma cell lines, MG-63 (ATCC No. CRL-1427) and HOS (ATCC No. CRL-1543), and mouse muscle C2C12 muscle cells (ATCC No. CRL-1772) were purchased from ATCC (American Type Culture Collection, Rockville, USA), and cultured in Dulbecco's modified Eagle's medium (DMEM) supplemented with 10% fetal bovine serum (FBS).
In order to indirectly evaluate cytotoxicity of the Compound 1 and investigate effect of the Compound 1 naturally extracted on obsteoblast proliferation, proliferation of MG-63 osteoblasts was investigated by measuring the amount of ^3H-thymidine incorporated into cellular DNA upon DNA replication. The cells were aliquotted onto 24-well plates at a density of 2×10^4 cells per well. The next day, after exchanging culture medium to medium containing 1% FBS, the cells were treated with the compound 1 serially diluted at various concentrations and further cultured for 48 hrs. Four hours before finishing the culture of 48 hrs, ^3H-thymidine was added to the medium in an amount of 3 μCi per well. The cells were washed with phosphate buffer, and treated with 5% trichloroacetic acid (TCA) pre-cooled on ice. Each of the separated TCA-insoluble fractions was dissolved in 0.1 M NaOH. With a portion of each fraction, ^3H-thymidine uptake by the cells was measured using a liquid scintillation counter.
Background: Uptake of a labelled nucleoside into DNA is a usual measure of proliferation.

The next assay has as its system osteoclasts. As to the kind of experiment: Resorption activity of osteoclasts on calcium phosphate-coated plates (resorption pit area). It counts as cell-based, mice. Particulars: for Resorption activity of osteoclasts, %: control = 100; for area of resorption pits compared to the control: text summary, concentration not stated. The protocol: First, bone marrow cells were isolated, as follow. After sacrificing 7-9 week female mice by cervical dislocation, femur and tibia were excised aseptically while removing attached soft tissues. After cutting both ends of long bones, 1 ml of an enzyme solution, containing 0.1% collagenase (Gibco), 0.05% trypsin and 0.5 mM EDTA (Gibco), was injected to the bone marrow cavity at one end using a syringe with a 26-guage needle, and bone marrow was then collected. After shaking the recovered bone marrow for 30 min, bone marrow cells were collected, and cultured in α-minimum essential medium (α-MEM) supplemented with 10% FBS for 24 hrs. Then, non-adherent cells were collected, which are osteoclast pregenitors, aliquotted onto culture plates at a density of 2×10^5 cells per well, and cultured for 8 days in α-MEM supplemented with 20 ng/ml of macrophage-colony stimulating factor (M-CSF, Peprotech, USA) and 30 ng/ml RANKL (Peprotech, USA). During the 8 days of culturing, the cells were treated with the Compound 1. Thereafter, osteoclast formation was investigated by fixing the cultured cells and then carrying out TRAP staining, as described in the following Experimental Example 2.2. In addition, resorption activity of osteoclasts was investigated by measuring the absorption area after removing osteoclasts in cultures in calcium phosphate-coated plates, as described in Experimental Example 2.3, below.
The differentiated osteoclasts were cultured on calcium phosphate-coated plates (OAASTM, OCT, Korea) in order to evaluate resorption activity of the cells. After removing culture medium, to remove the adherent cells, the plates were washed with distilled water three times, and incubated in 5% sodium hypochlorite for 5 min. After washing again with distilled water and drying the plates, the area of formed resorption pits was calculated by means of an Image Pro Plus software.

Assay [1] deals with ovariectomized white mice with developed osteoporosis. Kind of assay: Therapeutic effect on osteoporosis, tibia histology. The format is in vivo. The following applies: four weeks after ovariectomy, then oral 220 μl in 30 ml water for four weeks. The procedure: In order to evaluate effects of the compound of the present invention on treatment and prevention of osteoporosis, female white mice with osteoporosis induced by ovariectomy were used as a disease model. After ovariectomy, mice were administered with the compound of the present invention. Tibias were dissected from the mice, and observed histologically.
In order to evaluate therapeutic effect of the Compound 1 on osteoporosis, after ovariectomy, the mice were fed with solid feedstuff for four weeks. After checking progress of osteoporosis in the mice, a test group was administered with the Compound 1 for four weeks, according to the same method as described above, while a control group was fed with only solid feedstuff. Eight weeks after ovariectomy, tibia tissue specimens were prepared according to a method known the art.
The tibia tissue specimens prepared in the Experimental Example 3-2 were fixed in a Bouin's solution for about 24 hrs. Then, the tibia tissue specimens were decalcificated with 5% nitric acid for about 60 hrs in order to remove inorganic substances including calcium from the tibias, thus softening the tibias to the degree suitable for fracture. […]

Entries after “also recorded” stand apart in the source; their conditions may differ. A value given as a limit tells only on which side of the number the result lay.

In the case of `O=Cc1ccc(CO)o1` [Compound 1, 5-hydroxymethylfuran-2-carboxyaldehyde], the “Proliferation rate of MG-63 cells, %” value with MG-63 osteoblasts (10^−4 M Compound 1, 48 hrs) was 105.50 ± 5.90%; with MG-63 osteoblasts (10^−5 M Compound 1, 48 hrs), 102.63 ± 8.53%; in the assay with MG-63 osteoblasts (10^−6 M Compound 1, 48 hrs), 105.56 ± 5.49%; in the assay with MG-63 osteoblasts (10^−7 M Compound 1, 48 hrs) it was 103.91 ± 5.81%; in the assay with MG-63 osteoblasts (10^−8 M Compound 1, 48 hrs) it was 101.38 ± 4.65%. Moreover, the “proliferation rate of osteoblasts compared to a control not treated” value was “over 105%” in the assay on MG-63 osteoblasts and no less than 105% in the assay with MG-63 osteoblasts (listed as Example 1). Further, the “Resorption activity of osteoclasts, %” value was 52.34 ± 8.28% with osteoclasts (10^−4 M Compound 1, area of resorption pits); 46.92 ± 3.60% with osteoclasts (10^−5 M Compound 1, area of resorption pits); 41.75 ± 14.07% in the assay with osteoclasts (10^−6 M Compound 1, area of resorption pits); 61.46 ± 10.35% in the assay on osteoclasts (10^−7 M Compound 1, area of resorption pits); 66.03 ± 7.49% with osteoclasts (10^−8 M Compound 1, area of resorption pits). Also, the “area of resorption pits compared to the control” value was “about 50%” in the assay with osteoclasts and “inhibit bone resorption activity of osteoclasts” in the assay with osteoclasts (listed as Example 1). Also, in assay [1], the “trabecular bone density, histology” value is on record as “just a slight decrease in trabecular bone density; also recorded: no trabecular bone loss”.
